# According to ChEMBL document CHEMBL3808366, “Facile and efficient synthesis and biological evaluation of 4-anilinoquinazoline derivatives as EGFR inhibitors” (Bioorg Med Chem Lett, 2016):
# Active and inactive are the calls of the source. No cut-off for these calls is given here.
# What was measured:
# HepG2 = assay: Antiproliferative activity against human HepG2 cells over expressing EGFR after 48 hrs by MTT assay; type: functional, cell-based; settings: HepG2, 48 h
# [1] = Antiproliferative activity against human SMMC7721 cells over expressing EGFR after 48 hrs by MTT assay; type: functional, cell-based; settings: SMMC-7721, 48 h
# NCI-H1975 = assay: Antiproliferative activity against human NCI-H1975 cells over expressing EGFR after 48 hrs by MTT assay; type: functional, cell-based; settings: NCI-H1975, 48 h
# [2] = biological target: Epidermal growth factor receptor (Homo sapiens) (UniProt P00533); settings: NCI-H1975, at 1 µM
# Chain of Epidermal growth factor receptor (Homo sapiens) (P00533 whole entry): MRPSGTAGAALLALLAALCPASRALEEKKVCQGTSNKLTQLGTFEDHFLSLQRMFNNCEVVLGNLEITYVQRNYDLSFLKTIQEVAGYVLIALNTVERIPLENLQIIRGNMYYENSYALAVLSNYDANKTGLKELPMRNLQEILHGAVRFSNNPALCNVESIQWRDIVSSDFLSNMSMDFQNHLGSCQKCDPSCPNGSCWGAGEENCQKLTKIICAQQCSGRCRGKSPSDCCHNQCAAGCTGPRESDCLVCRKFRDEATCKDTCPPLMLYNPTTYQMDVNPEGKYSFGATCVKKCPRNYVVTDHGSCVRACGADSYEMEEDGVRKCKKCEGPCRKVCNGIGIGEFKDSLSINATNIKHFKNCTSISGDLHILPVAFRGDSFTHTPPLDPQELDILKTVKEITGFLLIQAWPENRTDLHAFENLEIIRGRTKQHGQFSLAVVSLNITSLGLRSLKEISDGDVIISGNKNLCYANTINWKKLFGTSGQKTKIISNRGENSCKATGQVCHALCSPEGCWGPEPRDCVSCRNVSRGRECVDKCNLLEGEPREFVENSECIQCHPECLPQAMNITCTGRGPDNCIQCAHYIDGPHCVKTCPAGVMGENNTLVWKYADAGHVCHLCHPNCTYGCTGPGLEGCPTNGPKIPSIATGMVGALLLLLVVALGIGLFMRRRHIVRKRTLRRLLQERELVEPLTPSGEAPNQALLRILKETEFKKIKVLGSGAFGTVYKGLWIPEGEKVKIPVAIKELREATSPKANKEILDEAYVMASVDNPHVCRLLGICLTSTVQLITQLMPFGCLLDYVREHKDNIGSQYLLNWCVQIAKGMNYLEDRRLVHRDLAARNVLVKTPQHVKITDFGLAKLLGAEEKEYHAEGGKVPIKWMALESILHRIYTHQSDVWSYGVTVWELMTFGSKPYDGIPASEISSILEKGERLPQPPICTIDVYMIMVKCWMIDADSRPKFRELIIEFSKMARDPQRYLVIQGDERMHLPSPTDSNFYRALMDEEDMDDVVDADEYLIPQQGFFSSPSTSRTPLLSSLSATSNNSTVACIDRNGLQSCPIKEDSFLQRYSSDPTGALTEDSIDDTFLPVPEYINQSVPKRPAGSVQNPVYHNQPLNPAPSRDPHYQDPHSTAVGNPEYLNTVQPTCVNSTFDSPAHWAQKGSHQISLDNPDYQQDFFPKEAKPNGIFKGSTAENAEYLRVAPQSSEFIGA
# Description: Inhibition of EGFR autophosphorylation at Tyr1068 site in human NCI-H1975 cells at 1 uM by western blotting analysis
IC50 (HepG2) [µM],IC50 (NCI-H1975) [µM],inhibition [2],Structure (SMILES),IC50 [1] [µM]
14.8,0.68,–,CNCCC(=O)Nc1ccc2ncnc(Nc3ccc(F)c(Cl)c3)c2c1,20.9
78.6,10.6,–,Brc1cccc(Nc2ncnc3ccccc23)c1,24.7
23.5,10.4,–,Clc1cccc(Nc2ncnc3ccccc23)c1,22
24.2,31.3,–,COc1cccc(Nc2ncnc3ccccc23)c1,15.6
29,23.5,–,Fc1ccc(Nc2ncnc3ccccc23)cc1,22
> 100,4.51,–,Fc1ccc(Nc2ncnc3ccccc23)cc1Cl,50.1
69.3,10.6,–,Fc1ccccc1Nc1ncnc2ccccc12,93.9
1.98,1.14,–,Cc1nc(Nc2ccc(F)c(Cl)c2)c2cc(NC(=O)CCN3CCOCC3)ccc2n1,3.26
3.21,0.87,–,Cc1nc(Nc2ccc(F)c(Cl)c2)c2cc(NC(=O)CCN3CCCCC3)ccc2n1,2.84
1.86,0.11,Active,Cc1nc(Nc2ccc(F)c(Cl)c2)c2cc(NC(=O)CCN(C)C)ccc2n1,1.04
13.2,7.58,–,Fc1cccc(Nc2ncnc3ccccc23)c1,15
8.59,1.85,–,O=C(CCN1CCCCC1)Nc1ccc2ncnc(Nc3ccc(F)c(Cl)c3)c2c1,12.6
1.13,0.48,–,CNCCC(=O)Nc1ccc2nc(C)nc(Nc3ccc(F)c(Cl)c3)c2c1,1.98
65.8,35.6,–,c1ccc(Nc2ncnc3ccccc23)cc1,35.6
16.3,3.01,–,O=C(CCN1CCOCC1)Nc1ccc2ncnc(Nc3ccc(F)c(Cl)c3)c2c1,19.6
9.36,0.36,Active,CN(C)CCC(=O)Nc1ccc2ncnc(Nc3ccc(F)c(Cl)c3)c2c1,9.54
